Tested on: 156681-154-R-J1 tumor spheroid viability
Test: Anticancer human tumor 156681-154-R-J1 patient-derived melanoma cell line growth inhibition
Conditions: spheroids with HUVEC and MSC; for IC50: curve of first compound; for viability, T/C: stronger effect = lower value
Procedure, shortened: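 Single agents and combinations were tested on spheroids built from tumor cells plus HUVEC and hMSC, at half-log dilutions starting at or near clinical Cmax, else 10 microM; final DMSO 0.25% (v/v).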
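Also: spheroids exposed to compounds for 7 days before readout.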
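For viability, T/C in this document: percent of vehicle control viability where 100% = DMSO-treated spheroids.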

Question: How did the IC50 (second compound 0.003 µM) turn out when O=C(c1cc(Cc2n[nH]c(=O)c3ccccc23)ccc1F)N1CCN(C(=O)C2CC2)CC1 + CC[C@@]1(O)C(=O)OCc2c1cc1n(c2=O)Cc2cc3c(CN(C)C)c(O)ccc3nc2-1 was run?
Answer: Its IC50 is 21.3 µM.

Question: What about the IC50 (second compound 0.00949 µM) of the same compound?
Answer: The IC50 was 14.8 µM.

Question: What about the IC50 (second compound 0.03 µM) of the same compound?
Answer: The IC50 was under 0.0949 µM.

Question: What about the IC50 (second compound 0.0949 µM) of the same compound?
Answer: Its IC50 is under 0.0949 µM.

Question: What about the IC50 (second compound 0.3 µM) of the same compound?
Answer: Its IC50 is under 0.0949 µM.

Question: What about the viability, T/C (second compound 0.003 µM, first compound 0.0949 µM) of the same compound?
Answer: Its viability, T/C is 103%.

Question: What about the viability, T/C (second compound 0.003 µM, first compound 0.3 µM) of the same compound?
Answer: Its viability, T/C is 80.6%.

Question: And the viability, T/C (second compound 0.003 µM, first compound 0.949 µM)?
Answer: The viability, T/C was 74.2%.

Question: And the viability, T/C (second compound 0.003 µM, first compound 3 µM)?
Answer: The viability, T/C was 74.5%.

Question: And the viability, T/C (second compound 0.003 µM, first compound 9.49 µM)?
Answer: Its viability, T/C is 63%.

Question: And the viability, T/C (second compound 0.003 µM, first compound 30 µM)?
Answer: The viability, T/C was 42.1%.

Question: And the viability, T/C (second compound 0.00949 µM, first compound 0.0949 µM)?
Answer: Its viability, T/C is 59.1%.

Question: What about the viability, T/C (second compound 0.00949 µM, first compound 0.3 µM) of the same compound?
Answer: Its viability, T/C is 64.2%.

Question: What about the viability, T/C (second compound 0.00949 µM, first compound 0.949 µM) of the same compound?
Answer: The viability, T/C was 76.7%.

Question: What about the viability, T/C (second compound 0.00949 µM, first compound 3 µM) of the same compound?
Answer: The viability, T/C was 62.6%.

Question: And the viability, T/C (second compound 0.00949 µM, first compound 9.49 µM)?
Answer: The viability, T/C was 62%.

Question: What about the viability, T/C (second compound 0.00949 µM, first compound 30 µM) of the same compound?
Answer: Its viability, T/C is 31.2%.

Question: What about the viability, T/C (second compound 0.03 µM, first compound 0.0949 µM) of the same compound?
Answer: The viability, T/C was 38.4%.

Question: What about the viability, T/C (second compound 0.03 µM, first compound 0.3 µM) of the same compound?
Answer: The viability, T/C was 41.1%.

Question: What about the viability, T/C (second compound 0.03 µM, first compound 0.949 µM) of the same compound?
Answer: The viability, T/C was 36.7%.

Question: And the viability, T/C (second compound 0.03 µM, first compound 3 µM)?
Answer: Its viability, T/C is 29.8%.

Question: And the viability, T/C (second compound 0.03 µM, first compound 9.49 µM)?
Answer: The viability, T/C was 15.3%.

Question: What about the viability, T/C (second compound 0.03 µM, first compound 30 µM) of the same compound?
Answer: The viability, T/C was 15.5%.

Question: What about the viability, T/C (second compound 0.0949 µM, first compound 0.0949 µM) of the same compound?
Answer: The viability, T/C was 33.5%.

Question: What about the viability, T/C (second compound 0.0949 µM, first compound 0.3 µM) of the same compound?
Answer: Its viability, T/C is 35.5%.

Question: And the viability, T/C (second compound 0.0949 µM, first compound 0.949 µM)?
Answer: Its viability, T/C is 33%.

Question: What about the viability, T/C (second compound 0.0949 µM, first compound 3 µM) of the same compound?
Answer: The viability, T/C was 25.7%.

Question: And the viability, T/C (second compound 0.0949 µM, first compound 9.49 µM)?
Answer: Its viability, T/C is 21.7%.

Question: What about the viability, T/C (second compound 0.0949 µM, first compound 30 µM) of the same compound?
Answer: The viability, T/C was 9.48%.

Question: And the viability, T/C (second compound 0.3 µM, first compound 0.0949 µM)?
Answer: The viability, T/C was 46%.

Question: What about the viability, T/C (second compound 0.3 µM, first compound 0.3 µM) of the same compound?
Answer: Its viability, T/C is 46.4%.

Question: What about the viability, T/C (second compound 0.3 µM, first compound 0.949 µM) of the same compound?
Answer: Its viability, T/C is 46.6%.

Question: And the viability, T/C (second compound 0.3 µM, first compound 3 µM)?
Answer: The viability, T/C was 46.2%.

Question: What about the viability, T/C (second compound 0.3 µM, first compound 9.49 µM) of the same compound?
Answer: Its viability, T/C is 42.3%.

Question: And the viability, T/C (second compound 0.3 µM, first compound 30 µM)?
Answer: Its viability, T/C is 13.3%.

From PubChem BioAssay AID1845195 (Molecular Pharmacology Branch, DTP, NCI, 2023)
